Reference: patent US10206936B2, “Oxidized lipids and treatment or prevention of fibrosis” (Vascular Biogenics Ltd., priority 2014, dated 2019)
Where “and” joins values, the source holds several entries; their conditions need not be identical. Identical values can stand only once.

Legend:
NASH mouse model = NASH mouse model (STZ + HFD): liver inflammation and fibrosis histology; assay type: in vivo; conditions: NASH mice; for reduction of liver inflammation (inflammation score) vs vehicle: VB-201 4 mg/kg or telmisartan 10 mg/kg once daily for three weeks
Description: Neonatal male mice exposed to low-dose streptozotocin (STZ) develop liver steatosis with diabetes. Continuous high fat diet (HFD) increases lobular inflammation with foam cell-like macrophages, showing nonalcoholic steatohepatitis (NASH) pathology. NASH was induced in 40 male mice by a single subcutaneous injection of 200 μg per mouse of STZ two days after birth and feeding HFD [57 kcal % fat]) from four weeks of age. Vehicle, VB-201 (4 mg/kg), or telmisartan (10 mg/kg) as positive control, were administered once daily for three weeks, starting from six weeks of age. Mice were sacrificed at nine weeks of age.
Liver pathology was used to determine the effect of VB-201 on liver inflammation and fibrosis. Histology slides were stained with hematoxylin/eosin (H&E) to assess inflammation. The inflammation score was determined as follows:
Histology slides were stained with Sirius red to determine collagen content as a marker for the extent of fibrosis.

nephrectomized rats [1] = assay: 5/6 nephrectomy rat model: glomerular damage and sclerosis (PAS); assay type: in vivo, Sprague Dawley (SD) Rats; conditions: for Glomerular sclerosis, Global % (Mean ± S.E) / Glomerular sclerosis, Global & Segmental % (Mean ± S.E) / Glomerular sclerosis, Segmental % (Mean ± S.E): Nx rats, VB-201 4 mg/kg or telmisartan 10 mg/kg, 8 weeks; for reduction of damaged glomeruli vs Nx PBS 0.5% Eth / reduction of sclerotic glomeruli vs Nx PBS 0.5% Eth: VB-201 4 mg/kg or telmisartan 10 mg/kg oral, 7 weeks, evaluated at 8 weeks
Description: Male Sprague Dawley (SD) Rats (Harlan Laboratories, Israel) with an initial weight of 200 g were housed 2-3 per cage in IVC cages in dedicated HVAC (heat, ventilation, air conditioning) animal facility. The facility had no exposure to outside light and was maintained on automatic alternating cycles of 12 hours of light and 12 hours of dark. Animals were provided with a commercial rodent diet (Harlan Teklad TRM Rat/Mouse Diet) ad libitum and allowed free access to autoclaved water, supplied to each cage via polysulphone bottles with stainless steel sipper tubes. All animal work was approved by the Animal Care and Use Committee of Israel (IL-13-03-027).
(§1) Rats were divided into three groups: (1) Healthy rats (n=3) in group A, (2) Sham group—subjected to chirurgical process but without kidney mass reduction (n=3) in group B, and (3) the rest were induced with chronic renal failure (n=24). Chronic renal failure was induced by a two stage (5/6) nephrectomy (Nx), with subtraction firstly of about ⅔ of the left kidney by left flank incision and, one week later, complete removal of the right kidney. General anesthesia consisted of intraperitoneal injection of ketamine 100 mg/kg and xylazine 20 mg/kg (0.85 ml ketamine+0.15 ml xylazine for each ml preparation; 1 μl/g BW was injected I.P).
One week following the second surgery, rats were randomly assigned to the following experimental groups:
Nephrectomized, orally administered with VB-201 4 mg/kg (n=8); and
Nephrectomized, orally administered with telmisartan 10 mg/kg as positive control (n=8).
(§2) Body weight (BW) was monitored throughout the study and rats were treated by oral gavage according to their body weight for 7 weeks. Rats were sacrificed by CO2 inhalation 8 weeks from removal of the right kidney (2nd surgery).
Upon sacrifice, at 8 weeks, kidneys were collected, weighed and fixed in 4% formaldehyde.
For light microscopy, paraffin-embedded tissue slides of 4 μm were stained with Periodic Acid-Schiff (PAS) reagent.
Glomerulosclerosis was assessed by PAS-stained sections using a semiquantitative scoring system. The extent of glomerulosclerosis was evaluated by examining mostly 100 randomly selected glomeruli at a magnification of ×400 and applying a score system according to the percentage of sclerosed glomerular area. The score was graded from 0 to 4: (0=0% area; 1=1-25%; 2=26-50%, 3=51-75%, 4=76% and above). The mean of all scored glomeruli was presented. Moreover, the extent of global and segmental glomerulosclerosis was evaluated in the same glomeruli, where <80% sclerosis was referred to as segmental and >80% was referred to as global.
The glomerular area of mostly 100 randomly selected glomeruli at a magnification of ×100 was quantitated by counting squares covered by glomeruli area using a grid and the mean glomeruli area was calculated.
Glomeruli were evaluated for their fibrosis extent by scoring and by calculation of the percent of glomeruli having segmental sclerosis, global sclerosis and the sum of global and segmental sclerotic glomeruli. Moreover, the area of the glomeruli was calculated and the percent of hypertrophied glomeruli was calculated. Damaged glomeruli included hypertrophied (at least ×1.5 from normal area) and or sclerotic glomeruli.

nephrectomized rats [2] = assay: 5/6 nephrectomy rat model: ED-1/CD68+ monocyte/macrophage infiltration, immunohistochemistry; assay type: in vivo, Sprague Dawley (SD) Rats; conditions: VB-201 4 mg/kg or telmisartan 10 mg/kg, 8 weeks after surgery; for ED-1/CD68+ Glomerular monocytes/macrophages (Mean ± S.E) / ED-1/CD68+ Interstitial monocytes/macrophages (Mean ± S.E): Nx rats
Description: as §1, §2
Renal tissues were fixed in 4% formaldehyde and embedded in paraffin. The paraffin-embedded tissues were then cut to form tissue slides of 4 μm. Immunohistochemistry of the paraffin-embedded tissue slides was analyzed using antibodies in the following concentration: monoclonal mouse anti rat CD-68 (ED-1, Serotec MCA341) 1:25. For quantitation of interstitial CD68+ staining, the number of positive cells was counted in 20 randomly selected non-overlapping fields per animal, and the mean value was presented.

Collagen IV = assay: 5/6 nephrectomy rat model: kidney Collagen IV mRNA, real-time PCR; assay type: in vivo, Sprague Dawley (SD) Rats; conditions: kidney of Nx rats, 8 weeks; for reduction of Collagen IV mRNA expression vs Nx PBS 0.5% Eth: VB-201 4 mg/kg or telmisartan 10 mg/kg; for Collagen IV relative mRNA expression (mean ± SEM): normalized to TBP, relative to Sham PBS 0.5% Eth
Description: as §1, §2
(§3) Kidney RNA was extracted with an RNeasy Fibrous Tissue Mini kit (Qiagen) and after DNAse I treatment, single-stranded cDNA was synthesized from 2 μg total RNA using the qScript cDNA Synthesis Kit (Quanta Biosciences) and diluted for real-time PCR. The expression of collagen 4a, fibronectin and TGFβ was quantified using the 7300 Real Time PCR System (Applied Biosystems). The assay was performed according to manufacturer instructions using the primers (Assay ID) represented at the table below supplied by Applied Biosystems. Data were normalized to the reference gene TATA-box Binding Protein (TBP) and presented as relative mRNA levels compared with Sham PBS 0.5% Eth treatment (Table 1).

TGF-β = assay: 5/6 nephrectomy rat model: kidney TGF-β mRNA, real-time PCR; assay type: in vivo, Sprague Dawley (SD) Rats; conditions: kidney of Nx rats, 8 weeks; for reduction of TGF-β mRNA expression vs Nx PBS 0.5% Eth: VB-201 4 mg/kg or telmisartan 10 mg/kg; for TGF-β relative mRNA expression (mean ± SEM): normalized to TBP, relative to Sham PBS 0.5% Eth
Description: as §1, §2, §3

SMILES: CCCCCCCCCCCCCCCCOCC(COP(=O)([O-])OCC[N+](C)(C)C)OCCCCC(=O)O (centres unmarked) [VB-201, 1-hexadecyl-2-(4′-carboxybutyl)-glycero-3-phosphocholine]
- decrease of extent of liver fibrosis (Sirius red fibrosis area) vs vehicle (NASH mouse model; VB-201 4 mg/kg once daily for three weeks): about 34%
- reduction of liver inflammation (inflammation score) vs vehicle (NASH mouse model): 65%
- Glomerular sclerosis, Global % (Mean ± S.E) (nephrectomized rats [1]): 5.4 ± 3.22%
- Glomerular sclerosis, Global & Segmental % (Mean ± S.E) (nephrectomized rats [1]): 31.8 ± 4.92%
- Glomerular sclerosis, Segmental % (Mean ± S.E) (nephrectomized rats [1]): 26.5 ± 4.39%
- reduction of damaged glomeruli vs Nx PBS 0.5% Eth (nephrectomized rats [1]): 29%
- reduction of sclerotic glomeruli vs Nx PBS 0.5% Eth (nephrectomized rats [1]): 34%
- ED-1/CD68+ Glomerular monocytes/macrophages (Mean ± S.E) (nephrectomized rats [2]): 2.113±0.374 Cells/Glomeruli and 2.113 Cells/Glomeruli
- ED-1/CD68+ Interstitial monocytes/macrophages (Mean ± S.E) (nephrectomized rats [2]): 269.25±25.41 Cells/mm^2 and 269.3 Cells/mm^2
- reduction of number of glomerular monocytes/macrophages vs Nx PBS 0.5% Eth (nephrectomized rats [2]): 42%
- reduction of number of interstitial monocytes/macrophages vs Nx PBS 0.5% Eth (nephrectomized rats [2]): 49%
- reduction of Collagen IV mRNA expression vs Nx PBS 0.5% Eth (Collagen IV): 42%
- Collagen IV relative mRNA expression (mean ± SEM) (Collagen IV): 4.3±0.33
- reduction of TGF-β mRNA expression vs Nx PBS 0.5% Eth (TGF-β): 37%
- TGF-β relative mRNA expression (mean ± SEM) (TGF-β): 5.3±0.33

SMILES: CCCc1nc2c(C)cc(-c3nc4ccccc4n3C)cc2n1Cc1ccc(-c2ccccc2C(=O)O)cc1 [telmisartan, reference compound]
- reduction of liver inflammation (inflammation score) vs vehicle (NASH mouse model): 77%
- Glomerular sclerosis, Global % (Mean ± S.E) (nephrectomized rats [1]): 1.9 ± 1.60%
- Glomerular sclerosis, Global & Segmental % (Mean ± S.E) (nephrectomized rats [1]): 21.0 ± 5.45%
- Glomerular sclerosis, Segmental % (Mean ± S.E) (nephrectomized rats [1]): 19.1 ± 4.30%
- reduction of damaged glomeruli vs Nx PBS 0.5% Eth (nephrectomized rats [1]): 31%
- reduction of sclerotic glomeruli vs Nx PBS 0.5% Eth (nephrectomized rats [1]): 57%
- ED-1/CD68+ Glomerular monocytes/macrophages (Mean ± S.E) (nephrectomized rats [2]): 3.185±0.427 Cells/Glomeruli and 3.185 Cells/Glomeruli
- ED-1/CD68+ Interstitial monocytes/macrophages (Mean ± S.E) (nephrectomized rats [2]): 421.0±61.77 Cells/mm^2 and 421.0 Cells/mm^2
- reduction of number of glomerular monocytes/macrophages vs Nx PBS 0.5% Eth (nephrectomized rats [2]): 13%
- reduction of number of interstitial monocytes/macrophages vs Nx PBS 0.5% Eth (nephrectomized rats [2]): 20%
- reduction of Collagen IV mRNA expression vs Nx PBS 0.5% Eth (Collagen IV): 41%
- Collagen IV relative mRNA expression (mean ± SEM) (Collagen IV): 4.4±0.23
- reduction of TGF-β mRNA expression vs Nx PBS 0.5% Eth (TGF-β): 44%
- TGF-β relative mRNA expression (mean ± SEM) (TGF-β): 4.7±0.52
